Experimental data published in patent US20090239877A1, “NOVEL 1,2,4-TRIAZOLE DERIVATIVES AND PROCESS OF MANUFACTURING THEREOF” (AETERNA ZENTARIS GmbH, priority 2008, published 2009).

Target: human GHS-R 1a (Homo sapiens, UniProt Q92847)
Assay: GHS-R 1a receptor-ligand binding assay (membrane preparations from transfected LLC PK-1 cells)
Design: expressed in transfected cells
Details: displacement of 125I-His9-ghrelin; plasma membranes of LLC PK-1 cells transiently transfected with human GHS-R 1a; mean of at least two independent experiments in triplicates
Description: II) GHS-R 1a Receptor-Ligand Binding Assay (Membrane Preparations from Transfected LLC PK-1 Cells)
The GHS-R 1a receptor binding/affinity studies were performed according to Guerlavais et al. (J. Med. Chem. 2003, 46: 1191-1203).
Isolated plasma membranes from LLC PK-1 cells, a renal epithelial cell line originally derived from porcine kidneys (ECACC No. 86121112) (10 μg of protein), that were transiently transfected with human GHS-R 1a cDNA (Guerlavais et al., J. Med. Chem. 2003, 46: 1191-1203), were incubated in homogenization buffer HB [50 mM Tris (pH 7.3), 5 mM MgCl2, 2.5 mM EDTA, and 30 μg/mL bacitracin (Sigma)] for 60 min at 25° C. (steady-state conditions) with […] ^125I-His^9-ghrelin (Amersham) in the presence or absence of competing compounds (compounds of the invention).
Nonspecific binding was defined using an excess (10^−6 M) of ghrelin. The binding reaction was stopped by addition of 4 mL of ice-cold HB followed by rapid filtration over Whatman GP/C filters presoaked with 0.5% polyethyleneimine to prevent excessive binding of radioligand to the filters. Filters were rinsed three times with 3 mL of icecold wash buffer [50 mM Tris (pH 7.3), 10 mM MgCl2, 2.5 mM EDTA, and 0.015% (w/v) X-100 Triton], and the radioactivity bound to membranes was measured in a gammacounter (Kontron Analytical Gamma Matic, Automatic gamma counting system).
The concentration of test compounds required to inhibit radiolabelled ghrelin binding by 50% (IC50) was determined by fitting competitive binding curves using non-linear regression (PRISM 3.0, Graph Pad San Diego, USA).
In the following table 2 results obtained for selected compounds of the invention are presented in comparison to an example of the prior art. IC50 values given are the mean of at least two independent experiments performed in triplicates.

Chain of human GHS-R 1a (Q92847 whole entry): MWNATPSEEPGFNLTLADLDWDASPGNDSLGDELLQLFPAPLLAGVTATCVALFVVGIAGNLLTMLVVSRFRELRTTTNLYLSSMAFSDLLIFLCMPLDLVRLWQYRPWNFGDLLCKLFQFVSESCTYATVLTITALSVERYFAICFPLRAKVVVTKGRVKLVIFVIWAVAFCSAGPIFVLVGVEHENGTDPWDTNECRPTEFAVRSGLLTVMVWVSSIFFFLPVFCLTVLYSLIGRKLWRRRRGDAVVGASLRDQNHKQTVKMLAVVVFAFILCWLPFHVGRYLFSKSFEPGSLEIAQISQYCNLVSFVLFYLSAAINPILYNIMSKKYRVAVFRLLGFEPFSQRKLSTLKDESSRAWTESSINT

IC50	Compound
107 nM	O=C(N[C@H](Cc1c[nH]c2ccccc12)c1nnc(CCCc2c[nH]c3ccccc23)n1Cc1cccc2ccccc12)c1cnccn1 [Compound 51, N-((R)-1-(5-(3-(1H-indol-3-yl)propyl)-4-((naphthalen-1-yl)methyl)-4H-1,2,4-triazol-3-yl)-2-(1H-indol-3-yl)ethyl)pyrazine-2-carboxamide]
92 nM	O=C(N[C@H](Cc1c[nH]c2ccccc12)c1nnc(CCc2ccccc2)n1CCc1ccccc1)C1CCNCC1 [Compound 71, N-((R)-2-(1H-indol-3-yl)-1-(4,5-diphenethyl-4H-1,2,4-triazol-3-yl)ethyl)piperidine-4-carboxamide]
0.3 nM	COc1ccc(Cn2c(CCc3ccccc3)nnc2[C@@H](Cc2ccc3ccccc3c2)NC(=O)C2CCNCC2)cc1 [Compound 54, N-((R)-1-(4-(4-methoxybenzyl)-5-phenethyl-4H-1,2,4-triazol-3-yl)-2-(naphthalen-2-yl)ethyl)piperidine-4-carboxamide]
2.2 nM	COc1ccc(Cn2c(CCc3ccccc3)nnc2[C@@H](Cc2cccc3ccccc23)NC(=O)C2CCNCC2)cc1 [Compound 78, N-((R)-1-(4-(4-methoxybenzyl)-5-phenethyl-4H-1,2,4-triazol-3-yl)-2-(naphthalen-1-yl)ethyl)piperidine-4-carboxamide]
48 nM	O=C(Cc1ccccn1)N[C@H](Cc1c[nH]c2ccccc12)c1nnc(CCc2c[nH]c3ccccc23)n1Cc1ccc(Cl)c(Cl)c1 [Compound 52, N-((R)-1-(5-(2-(1H-indol-3-yl)ethyl)-4-(3,4-dichlorobenzyl)-4H-1,2,4-triazol-3-yl)-2-(1H-indol-3-yl)ethyl)-2-(pyridin-2-yl)acetamide]
707 nM	O=C(N[C@H](Cc1c[nH]c2ccccc12)c1nnc(CCc2ccccc2)n1CCc1ccccc1)C1CCCCC1 [Compound 62, N-((R)-2-(1H-indol-3-yl)-1-(4,5-diphenethyl-4H-1,2,4-triazol-3-yl)ethyl)cyclohexane-carboxamide]
27.8 nM	COc1ccc(Cn2c(CCc3ccccc3)nnc2[C@@H](Cc2ccc3ccccc3c2)NC(=O)C2CCCN2)cc1 (stereo partly drawn) [Compound 59, N-((R)-1-(4-(4-methoxybenzyl)-5-phenethyl-4H-1,2,4-triazol-3-yl)-2-(naphthalen-2-yl)ethyl)pyrrolidine-2-carboxamide]
13.7 nM	COc1ccc(Cn2c(CCc3ccccc3)nnc2[C@@H](Cc2ccc3ccccc3c2)NC(=O)C(C)(C)N)cc1 [Compound 55, N-((R)-1-(4-(4-methoxybenzyl)-5-phenethyl-4H-1,2,4-triazol-3-yl)-2-(naphthalen-2-yl)ethyl)-2-amino-2-methylpropanamide]
18.8 nM	COc1ccc(Cn2c(CCc3ccccc3)nnc2[C@@H](Cc2cccc3ccccc23)NC(=O)C2CCCN2)cc1 (stereo partly drawn) [Compound 80, N-((R)-1-(4-(4-methoxybenzyl)-5-phenethyl-4H-1,2,4-triazol-3-yl)-2-(naphthalen-1-yl)ethyl)pyrrolidine-2-carboxamide]
29 nM	O=C(N[C@H](Cc1c[nH]c2ccccc12)c1nnc(CCCc2c[nH]c3ccccc23)n1Cc1cccc2ccccc12)c1ccccn1 [Compound 45, N-((R)-1-(5-(3-(1H-indol-3-yl)propyl)-4-((naphthalen-1-yl)methyl)-4H-1,2,4-triazol-3-yl)-2-(1H-indol-3-yl)ethyl)picolinamide]
535 nM	O=C(N[C@H](Cc1c[nH]c2ccccc12)c1nnc(CCc2ccccc2)n1CCc1ccccc1)c1ccccc1 [Compound 63, N-((R)-2-(1H-indol-3-yl)-1-(4,5-diphenethyl-4H-1,2,4-triazol-3-yl)ethyl)benzamide]
107 nM	O=C(Cc1ccccn1)N[C@H](Cc1c[nH]c2ccccc12)c1nnc(CCc2ccccc2)n1Cc1cccc2ccccc12 [Compound 50, N-((R)-2-(1H-indol-3-yl)-1-(4-((naphthalen-1-yl)methyl)-5-phenethyl-4H-1,2,4-triazol-3-yl)ethyl)-2-(pyridin-2-yl)acetamide]
825 nM	O=C(N[C@H](Cc1c[nH]c2ccccc12)c1nnc(CCc2ccccc2)n1CCc1ccccc1)c1cnccn1 [Compound 66, N-((R)-2-(1H-indol-3-yl)-1-(4,5-diphenethyl-4H-1,2,4-triazol-3-yl)ethyl)pyrazine-2-carboxamide]
12.3 nM	COc1ccc(Cn2c(CCc3ccccc3)nnc2[C@@H](Cc2cccc3ccccc23)NC(=O)C(C)(C)N)cc1 [Compound 77, N-((R)-1-(4-(4-methoxybenzyl)-5-phenethyl-4H-1,2,4-triazol-3-yl)-2-(naphthalen-1-yl)ethyl)-2-amino-2-methylpropanamide]
95 nM	O=C(N[C@H](Cc1c[nH]c2ccccc12)c1nnc(CCc2ccccc2)n1Cc1ccc(-c2ccccc2)cc1)C1CCNCC1 [Compound 74, N-((R)-1-(4-(4-phenylbenzyl)-5-phenethyl-4H-1,2,4-triazol-3-yl)-2-(1H-indol-3-yl)ethyl)piperidine-4-carboxamide]
1.45 nM	COc1ccc(Cn2c(CCc3ccccc3)nnc2[C@@H](Cc2cccc3ccccc23)NC(=O)c2ccccn2)cc1 [Compound 79, N-((R)-1-(4-(4-methoxybenzyl)-5-phenethyl-4H-1,2,4-triazol-3-yl)-2-(naphthalen-1-yl)ethyl)picolinamide]
20.9 nM	O=C(Cc1ccccn1)N[C@H](Cc1c[nH]c2ccccc12)c1nnc(CCCc2c[nH]c3ccccc23)n1Cc1cccc2ccccc12 [Compound 40, N-((R)-1-(5-(3-(1H-indol-3-yl)propyl)-4-((naphthalen-1-yl)methyl)-4H-1,2,4-triazol-3-yl)-2-(1H-indol-3-yl)ethyl)-2-(pyridin-2-yl)acetamide]
158 nM	O=C(N[C@H](Cc1c[nH]c2ccccc12)c1nnc(CCc2c[nH]c3ccccc23)n1Cc1ccc(Cl)c(Cl)c1)C1CCCN1 (stereo partly drawn) [Compound 53, N-((R)-1-(5-(2-(1H-indol-3-yl)ethyl)-4-(3,4-dichlorobenzyl)-4H-1,2,4-triazol-3-yl)-2-(1H-indol-3-yl)ethyl)pyrrolidine-2-carboxamide]
143 nM	O=C(N[C@H](Cc1c[nH]c2ccccc12)c1nnc(CCCc2c[nH]c3ccccc23)n1Cc1cccc2ccccc12)C1CCOCC1 [Compound 46, N-((R)-1-(5-(3-(1H-indol-3-yl)propyl)-4-((naphthalen-1-yl)methyl)-4H-1,2,4-triazol-3-yl)-2-(1H-indol-3-yl)ethyl)-tetrahydro-2H-pyran-4-carboxamide]
182 nM	NCCCC(=O)N[C@H](Cc1c[nH]c2ccccc12)c1nnc(CCc2ccccc2)n1Cc1cccc2ccccc12 [Compound 68, N-((R)-2-(1H-indol-3-yl)-1-(4-((naphthalen-1-yl)methyl)-5-phenethyl-4H-1,2,4-triazol-3-yl)ethyl)-4-aminobutanamide]
198 nM	O=C(N[C@H](Cc1c[nH]c2ccccc12)c1nnc(CCc2ccccc2)n1CCc1ccccc1)c1ccccn1 [Compound 64, N-((R)-2-(1H-indol-3-yl)-1-(4,5-diphenethyl-4H-1,2,4-triazol-3-yl)ethyl)picolinamide]
0.27 nM	NCCCC(=O)N[C@H](Cc1c[nH]c2ccccc12)c1nnc(CCc2c[nH]c3ccccc23)n1Cc1cccc2ccccc12 [Compound 67, N-((R)-1-(5-(2-(1H-indol-3-yl)ethyl)-4-((naphthalen-1-yl)methyl)-4H-1,2,4-triazol-3-yl)-2-(1H-indol-3-yl)ethyl)-4-aminobutanamide]
0.7 nM	COc1ccc(Cn2c(CCc3ccccc3)nnc2[C@@H](Cc2ccc3ccccc3c2)NC(=O)c2ccccn2)cc1 [Compound 57, N-((R)-1-(4-(4-methoxybenzyl)-5-phenethyl-4H-1,2,4-triazol-3-yl)-2-(naphthalen-2-yl)ethyl)picolinamide]
430 nM	O=C(N[C@H](Cc1c[nH]c2ccccc12)c1nnc(Cc2ccccc2)n1Cc1ccc(Cl)c(Cl)c1)c1cnccn1 [Compound 38, N-((R)-1-(4-(3,4-dichlorobenzyl)-5-benzyl-4H-1,2,4-triazol-3-yl)-2-(1H-indol-3-yl)ethyl)pyrazine-2-carboxamide]
1 nM	COc1ccc(Cn2c(CCc3c[nH]c4ccccc34)nnc2[C@@H](Cc2ccc3ccccc3c2)NC(=O)c2ccccn2)cc1 [Compound 58, N-((R)-1-(5-(2-(1H-indol-3-yl)ethyl)-4-(4-methoxybenzyl)-4H-1,2,4-triazol-3-yl)-2-(naphthalen-2-yl)ethyl)picolinamide]
150 nM	CC(C)(N)C(=O)N[C@H](Cc1c[nH]c2ccccc12)c1nnc(CCc2ccccc2)n1Cc1ccc(-c2ccccc2)cc1 [Compound 73, 2-amino-N-((R)-1-(4-(4-phenylbenzyl)-5-phenethyl-4H-1,2,4-triazol-3-yl)-2-(1H-indol-3-yl)ethyl)-2-methylpropanamide]
